Like-named read-outs stand apart in the source and are kept apart here.
Experiments:
[1] = system: Tobacco Michinoku 1 (burley cultivar) axillary buds; test: Tobacco axillary bud growth inhibition test, burley cultivar; format: in vivo; settings: Nicotiana tabacum, 672 h, 28 days after the spraying; for pest or weed control at 0.5 %: concentration of active ingredient 0.5%; for pest or weed control at 0.1 %: concentration of active ingredient 0.1%; for pest or weed control at 0.35 %: concentration of active ingredient 0.35%; for pest or weed control at 0.03 %: concentration of active ingredient 0.03%; for pest or weed control at 0.05 %: concentration of active ingredient 0.05%; for pest or weed control at 0.2 %: concentration of active ingredient 0.2%; for pest or weed control at 2.6 %: concentration of active ingredient 2.6%
Description: (§1) Tobacco seedlings of Tsukuba 1 (flue-cured cultivar) and Michinoku 1 (burley cultivar) were transplanted to 1/5000a Wagner pots filled with Kureha garden nursery soil. The plants were grown in a glasshouse, and the floral axis parts were removed at the time of single-flower bloom of tobacco (top pruning).
(§2) The formulations of the inhibitors for tobacco axillary bud growth obtained in Formulation Examples 1 to 10 above were each diluted with water to predetermined concentrations, and 20 ml of the water-diluted solutions of the respective inhibitors were separately sprayed using a contact-type axillary bud inhibitor spraying instrument equipped with a spot exhaust nozzle (Examples 1 to 11 and 12 to 22). In addition, butralin (trade name: Blue Ribbon) (Comparative Examples 1 and 3) and decyl alcohol (trade name: Contact) (Comparative Examples 2 and 4) were used for tests as comparative examples in the same manner as above. In the cases of both the flue-cured cultivar and burley cultivar, one plant was planted per pot, and the tests were carried out in duplicate.
(§3) For the respective cases, states of inhibition of axillary bud growth 28 days after the spraying were investigated together with untreated groups sprayed with no inhibitor, and axillary bud growth inhibition ratios were calculated by the following equation. Axillary bud growth inhibition ratio=(fresh weight of axillary buds per plant of untreated group−fresh weight of axillary buds per plant of treated group)÷(fresh weight of axillary buds per plant of untreated group)×100 [Math. 1]
(§4) The formulation of Formulation Example 1 (cafenstrole), Formulation Example 2 (thenylchlor) or Formulation Example 10 (propisochlor) above was diluted with water to predetermined concentrations and mixed with decyl alcohol (manufactured by Wako Pure Chemical Industries, Ltd.), 2-ethylhexanol (manufactured by Wako Pure Chemical Industries, Ltd.) or geraniol (manufactured by Wako Pure Chemical Industries, Ltd.) at predetermined concentrations, and the resultant was adjusted and used for tests (Examples 23 to 31 and 32 to 40). In addition, as comparative examples, the formulation of Formulation Example 1, […], or Formulation Example 10 diluted with water to predetermined concentrations (Comparative Examples 5 to 7 and 11 to 13) and decyl alcohol, 2-ethylhexanol or geraniol diluted with water to a predetermined concentration were used for tests (Comparative Examples 8 to 10 and 14 to 16).
(§5) The respective inhibitors were sprayed in the same manner as in Test Example 1, and states of inhibition of axillary bud growth 28 days after the spraying were investigated together with untreated groups sprayed with no inhibitor. Then, axillary bud growth inhibition ratios were calculated.
(§6) The formulation of Formulation Example 11 (cafenstrole), Formulation Example 12 (thenylchlor) or Formulation Example 13 (chlorthal-dimethyl) above was diluted with water to predetermined concentrations, and the resultant was mixed, adjusted and used for tests (Examples 41 to 58 and 59 to 76). In addition, as comparative examples, the formulation of Formulation Example 11, Formulation Example 12 or Formulation Example 13 diluted with water to predetermined concentrations (Comparative Examples 21 to 29 and 34 to 42), butralin (trade name: Blue Ribbon) (Comparative Examples 17, 18, 30, and 31) and decyl alcohol (trade name: Contact) (Comparative Examples 19, 20, 32, and 33) were used for tests in the same manner as above.

[2] = system: Tobacco Tsukuba 1 (flue-cured cultivar) axillary buds; test: Tobacco axillary bud growth inhibition test, flue-cured cultivar; format: in vivo, Nicotiana tabacum; settings: for pest or weed control at 0.5 %: concentration of active ingredient 0.5%; for pest or weed control at 0.2 %: concentration of active ingredient 0.2%
Description: as §1, §2, §3, §4, §5, §6

[3] = system: Tobacco Michinoku 1 (burley cultivar) leaves (first to fourth leaves from the top); test: Harmful effect of inhibitor on tobacco leaves, burley cultivar; format: in vivo, Nicotiana tabacum
Description: as §1, §2
(§7) Further, the presence or absence of the harmful effect of each inhibitor was evaluated in one of the following four categories depending on the degrees of growth inhibition, gangrene, change in color, deformation and the like of leaves (first to fourth leaves from the top).
(§8) Large: A severely harmful effect was observed.
(§9) Middle: A clearly harmful effect was observed.
(§10) Small: A slightly harmful effect was observed.
(§11) Absent: No harmful effect was observed.
as §6, §5

[4] = system: Tobacco Tsukuba 1 (flue-cured cultivar) leaves (first to fourth leaves from the top); test: Harmful effect of inhibitor on tobacco leaves, flue-cured cultivar; format: in vivo, Nicotiana tabacum
Description: as §1, §2, §7, §8, §9, §10, §11, §6, §5

[5] = Table 4, burley cultivar, read-out: Axillary bud growth inhibition ratio
[6] = Nicotiana tabacum, 672 h, Table 3, flue-cured cultivar, 28 days after the spraying, read-out: Axillary bud growth inhibition ratio
[7] = Table 2, burley cultivar, read-out: Axillary bud growth inhibition ratio
[8] = Nicotiana tabacum, 672 h, Table 1, flue-cured cultivar, concentration of active ingredient 0.1%, 28 days after the spraying, read-out: Axillary bud growth inhibition ratio
[9] = Table 2, burley cultivar, concentration of active ingredient 0.1%
[10] = Table 1, flue-cured cultivar, concentration of active ingredient 0.1%
[11] = read-out: Axillary bud growth inhibition ratio, Table 2, burley cultivar
[12] = read-out: Axillary bud growth inhibition ratio, Table 6, burley cultivar
[13] = Nicotiana tabacum, 672 h, read-out: Axillary bud growth inhibition ratio
[14] = Table 6, burley cultivar, read-out: Axillary bud growth inhibition ratio

`CCCCC(CC)CO` (centres unmarked) [2-Ethylhexanol, 2-ethylhexanol] showed a pest or weed control at 0.5 % [1, 5] of 34% and a pest or weed control at 0.5 % [2, 6] of 21%.
In the case of `CCc1cccc(CC)c1N(COC)C(=O)CCl` [Alachlor, alachlor], the pest or weed control at 0.1 % [1, 7] is reported as 91%, the pest or weed control at 0.1 % [2, 8] is reported as 97% and the “Harmful effect of inhibitor” value [3, 9] is reported as “Absent”. The “Harmful effect of inhibitor” value [4, 10] was “Absent”.
With `CCCCOCN(C(=O)CCl)c1c(CC)cccc1CC` [Butachlor, butachlor] the pest or weed control at 0.1 % [1, 7] was 96%, the pest or weed control at 0.1 % [2, 8] was 100% and the “Harmful effect of inhibitor” value ([3]; in vivo) was “Absent”. The “Harmful effect of inhibitor” value ([4]; in vivo) was “Absent”.
`CCC(C)Nc1c([N+](=O)[O-])cc(C(C)(C)C)cc1[N+](=O)[O-]` (centres unmarked) [Butralin, butralin] gave a pest or weed control at 0.35 % [1, 11] of 96%, a pest or weed control at 0.03 % [1, 12] of 48% and a pest or weed control at 0.35 % [1, 12] of 97%. For the same compound, the pest or weed control at 0.03 % [2, 13] was 44%, the pest or weed control at 0.35 % [2, 13] was 98% and the “Axillary bud growth inhibition ratio” value ([2]; Table 5, flue-cured cultivar, concentration of active ingredient 0.35%, 28 days after the spraying) was 98%.
With `CCN(CC)C(=O)n1cnc(S(=O)(=O)c2c(C)cc(C)cc2C)n1` [Cafenstrole] the pest or weed control at 0.1 % [1, 11] was 99%, the pest or weed control at 0.05 % ([1]; read-out: Axillary bud growth inhibition ratio, Table 4, burley cultivar) was 72% and the pest or weed control at 0.002 % ([1]; read-out: Axillary bud growth inhibition ratio, Table 6, burley cultivar, concentration of active ingredient 0.002%) was 15%. The pest or weed control at 0.005 % ([1]; read-out: Axillary bud growth inhibition ratio, Table 6, burley cultivar, concentration of active ingredient 0.005%) was 19%, the pest or weed control at 0.01 % ([1]; read-out: Axillary bud growth inhibition ratio, Table 6, burley cultivar, concentration of active ingredient 0.01%) was 25% and the pest or weed control at 0.002 % [2, 13] was 17%. The pest or weed control at 0.005 % [2, 13] was 20%, the pest or weed control at 0.01 % [2, 13] was 23% and the pest or weed control at 0.05 % [2, 13] was 76%. For the same compound, the pest or weed control at 0.1 % [2, 13] was 100%, the “Harmful effect of inhibitor” value [3, 9] was “Absent” and the “Harmful effect of inhibitor” value ([3]; Table 6, burley cultivar, concentration of active ingredient 0.002%) was “Absent”. The “Harmful effect of inhibitor” value ([3]; Table 6, burley cultivar, concentration of active ingredient 0.005%) was “Absent”, the “Harmful effect of inhibitor” value ([3]; Table 6, burley cultivar, concentration of active ingredient 0.01%) was “Absent” and the “Harmful effect of inhibitor” value [4, 10] was “Absent”. The “Harmful effect of inhibitor” value ([4]; Table 5, flue-cured cultivar, concentration of active ingredient 0.002%) was “Absent”, the “Harmful effect of inhibitor” value ([4]; Table 5, flue-cured cultivar, concentration of active ingredient 0.005%) was “Absent” and the “Harmful effect of inhibitor” value ([4]; Table 5, flue-cured cultivar, concentration of active ingredient 0.01%) was “Absent”.
Work on `COC(=O)c1c(Cl)c(Cl)c(C(=O)OC)c(Cl)c1Cl` [Chlorthal-dimethyl, chlorthal-dimethyl] yielded a pest or weed control at 0.05 % [1, 14] of 39%, a pest or weed control at 0.1 % [1, 14] of 71% and a pest or weed control at 0.2 % [1, 14] of 82%. It also gave a pest or weed control at 0.05 % ([2]; Nicotiana tabacum, 672 h, Table 5, flue-cured cultivar, concentration of active ingredient 0.05%, 28 days after the spraying, read-out: Axillary bud growth inhibition ratio) of 43%, a pest or weed control at 0.1 % ([2]; Nicotiana tabacum, 672 h, Table 5, flue-cured cultivar, concentration of active ingredient 0.1%, 28 days after the spraying, read-out: Axillary bud growth inhibition ratio) of 78% and a pest or weed control at 0.2 % ([2]; Nicotiana tabacum, 672 h, Table 5, flue-cured cultivar, 28 days after the spraying, read-out: Axillary bud growth inhibition ratio) of 88%. For the same compound, the “Harmful effect of inhibitor” value ([3]; in vivo) was “Absent” and the “Harmful effect of inhibitor” value ([4]; in vivo) was “Absent”.
Compound `CCCCCCCCCCO` [Decyl alcohol, decyl alcohol] has a pest or weed control at 2.6 % [1, 7] of 92%, a pest or weed control at 0.5 % [1, 5] of 46% and a pest or weed control at 0.03 % [1, 14] of 0%. It also gave a pest or weed control at 2.6 % [1, 14] of 94%, a pest or weed control at 2.6 % ([2]; Nicotiana tabacum, 672 h, Table 1, flue-cured cultivar, concentration of active ingredient 2.6%, 28 days after the spraying, read-out: Axillary bud growth inhibition ratio) of 91% and a pest or weed control at 0.5 % [2, 6] of 42%. For the same compound, the pest or weed control at 0.03 % ([2]; Nicotiana tabacum, 672 h, Table 5, flue-cured cultivar, concentration of active ingredient 0.03%, 28 days after the spraying, read-out: Axillary bud growth inhibition ratio) was 0% and the “Axillary bud growth inhibition ratio” value ([2]; Table 5, flue-cured cultivar, concentration of active ingredient 2.6%, 28 days after the spraying) was 91%.
In the case of `COCC(C)N(C(=O)CCl)c1c(C)csc1C` (centres unmarked) [Dimethenamid, dimethenamid], the pest or weed control at 0.1 % [1, 7] is reported as 94%, the pest or weed control at 0.1 % [2, 8] is reported as 92% and the “Harmful effect of inhibitor” value ([3]; in vivo) is reported as “Absent”. The “Harmful effect of inhibitor” value ([4]; in vivo) was “Absent”.
For `CCN(C(=O)n1nnn(-c2ccccc2Cl)c1=O)C1CCCCC1` [Fentrazamide, fentrazamide], the pest or weed control at 0.1 % [1, 7] was 92%, the pest or weed control at 0.1 % [2, 8] was 94% and the “Harmful effect of inhibitor” value [3, 9] was “Absent”. For the same compound, the “Harmful effect of inhibitor” value [4, 10] was “Absent”.
For `CC(C)=CCC/C(C)=C/CO` [Geraniol, geraniol], the pest or weed control at 0.5 % [1, 5] was 28% and the pest or weed control at 0.5 % [2, 6] was 30%.
`CCC1(CC2(c3cccc(Cl)c3)CO2)C(=O)c2ccccc2C1=O` (centres unmarked) [Indanofan] was tested, and the pest or weed control at 0.1 % [1, 7] was 95%, the pest or weed control at 0.1 % [2, 8] was 100% and the “Harmful effect of inhibitor” value ([3]; in vivo) was “Absent”. The “Harmful effect of inhibitor” value ([4]; in vivo) was “Absent”.
With `CCc1cccc(C)c1N(C(=O)CCl)C(C)COC` (centres unmarked) [Metolachlor, metolachlor] the pest or weed control at 0.1 % [1, 7] was 91%, the pest or weed control at 0.1 % [2, 8] was 95% and the “Harmful effect of inhibitor” value [3, 9] was “Absent”. The “Harmful effect of inhibitor” value [4, 10] was “Absent”.
With `CCCOCCN(C(=O)CCl)c1c(CC)cccc1CC` [Pretilachlor] the pest or weed control at 0.1 % [1, 7] was 92%, the pest or weed control at 0.1 % [2, 8] was 93% and the “Harmful effect of inhibitor” value [3, 9] was “Absent”. For the same compound, the “Harmful effect of inhibitor” value [4, 10] was “Absent”.
`CCc1cccc(C)c1N(COC(C)C)C(=O)CCl` [Propisochlor, propisochlor] showed a pest or weed control at 0.1 % [1, 7] of 84%, a pest or weed control at 0.2 % [1, 7] of 95% and a pest or weed control at 0.1 % [1, 5] of 83%. For the same compound, the pest or weed control at 0.1 % [2, 8] was 86%, the pest or weed control at 0.2 % ([2]; Nicotiana tabacum, 672 h, Table 1, flue-cured cultivar, 28 days after the spraying, read-out: Axillary bud growth inhibition ratio) was 98% and the “Axillary bud growth inhibition ratio” value ([2]; Table 3, flue-cured cultivar, concentration of active ingredient 0.1%, 28 days after the spraying) was 86%. For the same compound, the “Harmful effect of inhibitor” value ([3]; in vivo) was “Absent” and the “Harmful effect of inhibitor” value ([4]; in vivo) was “Absent”.
